Patent US8981179B2, “Transgenic non-human animal and uses thereof” (Sanofi, priority 2009, dated 2015)

Columns and labels:
[1] = biological target: T1, mGluR7 (Mus musculus, UniProt Q68ED2); assay: Whole brain slice luminescence, Gi agonist with isoproterenol; format: cell-based; parameters: from tissue; host or cells: hippocampal brain slices, CreLuc mouse line 187; conditions: line 187, 1 uM AMN082 in combination with 1 uM ISO
Protocol: Whole brain slices were used to show the effects of compounds on luminescence in CreLuc mice (FIG. 8A, 8B). In general, brains from CreLuc mice can be harvested and then either cut into slices on a microtome or various subregions can also be dissected out and then sliced on a microtome. The slices can then be incubated with different compounds such as forskolin and rolipram, or GPCR specific compounds. Luciferase levels can then be measured with an IVIS bioimager or a photomultiplier with a carousel to take quantitative timecourse measurements.
Brain slices from the hippocampal region of CreLuc mice (line #187) were incubated with 1 uM isoproterenol (Sigma, cat#5627) for 2 days. […] (FIG. 8A, bottom panel). Thus, isoproterenol was used to increase the luciferase signal window which allows for screening GPCR specific compounds such as Gi agonists. AMN082 (AMN, Tocris Bioscience, Cat. No. 2385) is an mGluR7 agonist and mGluR7 is a receptor that is coupled to Gi. When brain slices were treated with 1 uM ISO in combination with 1 uM AMN082, the luciferase signal was diminished in comparison to ISO treatment alone.

[2] = biological target: T1, mGluR7; assay: Primary cortical neurons CreLuc luciferase assay, Gi modulation via mGluR7; format: cell-based; parameters: endogenous in cells; host or cells: primary cortical neurons, E18 embryos, CreLuc mouse line 187
From the text: (§1) A general schematic of the workflow for the isolation and compound treatment of primary neuronal cells from the CreLuc model is depicted in FIG. 9. Cortices or other brain subregions are removed from embryos, usually embryonic (E) day 17 or 18, but also as early as E14. The individual neurons are then isolated and plated onto 96 well assay plates. Assays are run either in triplicate or quadruplicate. The assays are run from day 3 in culture up until day 7 or day 10 in culture depending on the expression levels of the target GPCR. Compounds are added to the plates then at a set timepoint, Bright Glo (Promega, Cat #E2610) is added to the plates and the assay is then run on a TopCount or other luminometer.
Primary cell cultures from the CreLuc mice may be used to screen compounds that are capable of modulating Gi coupled receptors. […] Cortical neurons were harvested from E18 embryos. The assay was run at day 3 in culture. Forskolin was used at 10 μM to give a larger signal window to be used to detect Gi activity. The mGluR7 agonist, AMN082 was used in combination with forskolin at 1 nM, 10 nM, 100 nM and 1 μM. The assay was read on a TopCount with Bright Glo (Promega) at 4 hours, and 8 hours. […] The CreLuc mice can be used to screen for compounds that modulate Gq coupled receptors.
However, to increase the signal window even wider, rolipram (blocks the breakdown of cAMP) was used in combination with forskolin. Primary cortical neurons were isolated from E18 embryos from line 187 which was previously determined to have inducible brain and spinal cord expression. The assay, in triplicates, was run at day 7 in culture for 6 hours. A dose curve, 10 μM down to 1 nM, for AMN082 was run in combination with 50 μM forskolin and 10 μM rolipram. The assay was read on a TopCount luminometer with Bright Glo substrate (Promega). […] All lines used were previously determined to have inducible luciferase expression levels in whole brain tissue extracts (data not shown). […] Bright Glo luciferase assay substrate was then added, and the assay read on a Topcount luminometer. […]

[3] = biological target: T2, adrenoceptor beta3 (Adrb3) (Mus musculus, UniProt P25962); assay: Induction of luciferase by Adrb3 agonist in CRE-Luc mice (tissue homogenates, bioimaging); format: in vivo; conditions: 1 mg/kg, ip
T2 construct: from tissue; host or cells: whole animal; luciferase read in tissue homogenates (adipose tissue, lung and others) and by bioimaging
Protocol: The luciferase assay was performed in tissue homogenates.

[4] = biological target: T3, CB1 (Mus musculus, UniProt P47746); assay: Primary cortical neurons CreLuc luciferase assay, Gi modulation by CB1 agonist; format: cell-based
T3 construct: endogenous in cells; host or cells: primary cortical neurons, E18, CreLuc mouse lines 69, 187, 175, 219
Protocol: However, to increase the signal window even wider, rolipram (blocks the breakdown of cAMP) was used in combination with forskolin. Primary cortical neurons were isolated from E18 embryos from line 187 which was previously determined to have inducible brain and spinal cord expression. The assay, in triplicates, was run at day 7 in culture for 6 hours. A dose curve, 10 μM down to 1 nM, for AMN082 was run in combination with 50 μM forskolin and 10 μM rolipram. The assay was read on a TopCount luminometer with Bright Glo substrate (Promega). […] Gi modulation of luciferase expression in primary cortical neurons from different CreLuc lines by the CB1 agonist, CP 55,940 was performed in the presence of forskolin and rolipram (FIG. 15). Primary cortical neurons were harvested from lines 69, 187, 175 and 219 at E18. All lines used were previously determined to have inducible luciferase expression levels in whole brain tissue extracts (data not shown). The assays were run on day three in culture. The CB1 agonist was used at 10 μM, forskolin at 5 μM and rolipram at 10 μM. […] Bright Glo luciferase assay substrate was then added, and the assay read on a Topcount luminometer. […]
Gi modulation of luciferase in primary cortical neurons from CreLuc mice by the CB1 agonist, CP 55,940 was in a dose-dependent manner (FIG. 15B). […] The assay was read on a TopCount with BrightGlo (Promega) at 8 hours.

[5] = tested on: plasma cAMP; conditions: Balb/c mice, 10 mg/kg, blood harvested after 20 minutes; cited from earlier work
[6] = biological target: T4, D1 dopamine receptors (DRD1) (Mus musculus, UniProt Q61616); assay: Primary cortical neurons CreLuc luciferase assay, Gs modulation via DRD1; format: cell-based; conditions: 4 hours
T4 construct: Neurons were isolated from the cortices of line 187 E18 embryos; endogenous in cells; host or cells: primary cortical neurons (E18) and striatal neurons (E14), CreLuc mouse line 187
From the text: as §1
The assay was run in triplicates on day three in culture. Forskolin was used at 5 μM, rolipram at 10 μM and the Gs agonists, ADβR-isoproterenol; and Dopamine-SKF82958 (MFG, Cat #C130) at 10 μM. At 4 hours, Bright Glo was added and the assays run on a Topcount. Forskolin is a general activator of cAMP.

[7] = Blood glucose in unfasted CRE-luc mice; format: in vivo, mouse; conditions: line 11, AVE0010 0.1 mg/kg, sc
Protocol: The induction of CRE-Luc by AVE0010 is likely beta-cell-specific (FIG. 31). Animals were treated as described in FIG. 30. Blood glucose levels were measured by tail vein nicking on unfasted mice. Glucose levels were read on a Bayer glucometer. Glucose levels are shown as mg glucose/[…]. Fold induction is the luciferase bioimaging levels of AVE10 dosing versus the baseline signals. Blood glucose levels (BG) were increased by STZ (upper left panel). Non-fasting BG levels were reduced by AVE0010 (0.1 mg/kg, sc).

[8] = biological target: T5, glucagon-like peptide 1 receptor (GLP-1R) (Mus musculus, UniProt O35659); assay: Induction of luciferase reporter by GLP-1R agonist in CRE-Luc mice (bioimaging, tissue homogenates); format: in vivo
T5 construct: from tissue; host or cells: whole animal; bioimaging and tissue homogenates, signal in the pancreas
T5 sequence (O35659 22-463): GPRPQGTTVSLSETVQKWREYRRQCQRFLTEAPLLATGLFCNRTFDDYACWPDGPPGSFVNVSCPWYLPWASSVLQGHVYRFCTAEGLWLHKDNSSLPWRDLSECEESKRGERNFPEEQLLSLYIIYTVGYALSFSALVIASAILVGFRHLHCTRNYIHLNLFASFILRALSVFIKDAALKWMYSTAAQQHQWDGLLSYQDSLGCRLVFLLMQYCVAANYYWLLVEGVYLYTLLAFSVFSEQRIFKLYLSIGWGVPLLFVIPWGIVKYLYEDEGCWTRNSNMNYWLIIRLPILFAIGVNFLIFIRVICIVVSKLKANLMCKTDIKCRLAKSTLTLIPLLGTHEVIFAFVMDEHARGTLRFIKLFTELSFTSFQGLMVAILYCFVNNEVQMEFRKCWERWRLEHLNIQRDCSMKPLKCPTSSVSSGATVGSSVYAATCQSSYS
Protocol: Transgene activation co-localizes with tissue specific receptor activation as exemplified by the induction of luciferase reporter by the glucagon-like peptide 1 receptor (GLP-1R) agonist, AVE0010, which was studied in three independent lines of CRE-Luc mice (FIG. 28). The GLP-1R is Gs coupled. Baseline images were acquired on day 1. On day 2, mice were treated with AVE0010 (0.1 mg/kg, sc) and imaged after 4 hours. Folds of induction over baseline were indicated at the bottom. […] Luciferase activities in 8 different tissues were measured for lines 11, 16 and 90 (FIG. 29) following treatment with AVE0010 (0.1 mg/kg, s.c.) for 4 hours. […] The activity of AVE0010 is limited to the pancreas even though GLP-1R is found in different tissue types.
The induction of Cre-Luc by AVE0010 is likely beta-cell mediated. The effects of the beta-cell toxin streptozotocin (STZ) on the induction of CRE-Luc by AVE0010 was investigated (FIG. 30). Male CRE-luc mice were imaged before and after AVE0010 (0.1 mg/kg, sc) treatment. […] Then, the animals were treated with vehicle or STZ (200 mpk, ip). Four days later, they were imaged again after AVE0010 treatment.

T1 sequence (Q68ED2 35-915): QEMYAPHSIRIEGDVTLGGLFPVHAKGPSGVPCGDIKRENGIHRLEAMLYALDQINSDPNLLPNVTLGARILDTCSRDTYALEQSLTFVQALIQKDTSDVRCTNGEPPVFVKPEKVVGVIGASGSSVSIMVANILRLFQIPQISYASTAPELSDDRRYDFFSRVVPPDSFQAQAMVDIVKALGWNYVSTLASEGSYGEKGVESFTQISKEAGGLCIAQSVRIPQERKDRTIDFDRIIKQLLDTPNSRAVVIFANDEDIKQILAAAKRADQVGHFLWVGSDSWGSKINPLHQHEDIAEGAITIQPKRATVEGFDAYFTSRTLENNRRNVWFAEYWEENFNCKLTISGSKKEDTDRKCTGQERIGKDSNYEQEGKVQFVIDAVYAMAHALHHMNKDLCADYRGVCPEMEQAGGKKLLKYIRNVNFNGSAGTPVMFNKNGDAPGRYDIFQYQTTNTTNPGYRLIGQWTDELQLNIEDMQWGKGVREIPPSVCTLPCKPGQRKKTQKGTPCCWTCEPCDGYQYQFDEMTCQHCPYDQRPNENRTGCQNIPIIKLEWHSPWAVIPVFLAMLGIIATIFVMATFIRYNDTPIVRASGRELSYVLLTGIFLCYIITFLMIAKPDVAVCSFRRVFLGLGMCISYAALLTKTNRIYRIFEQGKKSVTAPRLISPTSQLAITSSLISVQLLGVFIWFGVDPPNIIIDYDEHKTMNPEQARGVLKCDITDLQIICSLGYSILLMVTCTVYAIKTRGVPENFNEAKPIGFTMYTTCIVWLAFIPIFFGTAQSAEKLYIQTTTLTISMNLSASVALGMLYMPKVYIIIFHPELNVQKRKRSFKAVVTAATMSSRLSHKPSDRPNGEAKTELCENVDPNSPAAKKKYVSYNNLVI
T2 sequence (P25962 whole entry): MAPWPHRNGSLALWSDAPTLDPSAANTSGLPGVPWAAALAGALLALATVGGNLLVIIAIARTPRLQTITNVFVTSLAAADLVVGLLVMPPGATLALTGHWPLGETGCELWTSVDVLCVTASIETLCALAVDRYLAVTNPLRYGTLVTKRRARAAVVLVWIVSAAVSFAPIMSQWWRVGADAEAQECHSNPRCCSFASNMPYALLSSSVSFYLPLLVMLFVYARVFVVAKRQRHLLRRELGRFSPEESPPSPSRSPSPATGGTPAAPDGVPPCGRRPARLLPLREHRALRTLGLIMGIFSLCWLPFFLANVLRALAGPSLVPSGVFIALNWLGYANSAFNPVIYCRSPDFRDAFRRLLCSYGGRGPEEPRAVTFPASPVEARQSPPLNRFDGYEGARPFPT
T4 sequence (Q61616 whole entry): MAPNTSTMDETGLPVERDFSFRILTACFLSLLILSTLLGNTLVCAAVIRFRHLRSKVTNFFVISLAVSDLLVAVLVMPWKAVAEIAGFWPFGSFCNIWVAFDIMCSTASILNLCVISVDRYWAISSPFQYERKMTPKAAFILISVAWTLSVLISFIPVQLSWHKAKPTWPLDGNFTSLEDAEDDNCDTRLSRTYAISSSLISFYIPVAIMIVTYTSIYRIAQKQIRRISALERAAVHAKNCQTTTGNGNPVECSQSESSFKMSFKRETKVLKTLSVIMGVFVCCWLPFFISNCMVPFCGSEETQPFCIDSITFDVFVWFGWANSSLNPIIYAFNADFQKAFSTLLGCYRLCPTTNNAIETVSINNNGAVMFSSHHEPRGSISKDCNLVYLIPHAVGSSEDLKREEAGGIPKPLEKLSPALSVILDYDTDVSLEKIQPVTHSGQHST
T3 sequence (P47746 whole entry): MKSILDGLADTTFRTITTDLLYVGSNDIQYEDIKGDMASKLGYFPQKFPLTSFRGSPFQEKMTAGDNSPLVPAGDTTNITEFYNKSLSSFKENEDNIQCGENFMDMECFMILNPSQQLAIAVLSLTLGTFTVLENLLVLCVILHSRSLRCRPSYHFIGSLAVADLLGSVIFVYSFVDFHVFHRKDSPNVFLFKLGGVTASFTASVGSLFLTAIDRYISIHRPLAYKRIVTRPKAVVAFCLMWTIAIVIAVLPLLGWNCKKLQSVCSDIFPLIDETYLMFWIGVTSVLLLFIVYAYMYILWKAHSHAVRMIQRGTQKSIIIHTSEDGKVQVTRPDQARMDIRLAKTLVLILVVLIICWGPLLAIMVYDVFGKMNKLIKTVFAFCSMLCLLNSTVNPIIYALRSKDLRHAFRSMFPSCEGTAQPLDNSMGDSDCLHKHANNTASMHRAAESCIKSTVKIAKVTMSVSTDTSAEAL

Cl.Cl.c1ccc(C(NCCNC(c2ccccc2)c2ccccc2)c2ccccc2)cc1 [AMN082]
luciferase signal in brain slices in comparison to ISO treatment alone [1]: diminished | luciferase levels versus forskolin only ([2]; cortical neurons line 187, day 3, 10 μM forskolin, 100 nM and 1 μM AMN082, 4 hours and 8 hours): Significant decreases | EC50 ([2]; cortical neurons line 187, day 3, in combination with 10 μM forskolin, 4 hours, read-out: calculated EC50 (Gi modulation of luciferase)): 174 nM | decreases in luciferase levels vs. forskolin and rolipram controls ([2]; cortical neurons line 187, day 7, 6 hours, 50 μM forskolin and 10 μM rolipram, at 1 μM, 100 nM and 1 nM, p<0.0005): 59-61%

C[C@H](Cc1ccc2c(c1)OC(C(=O)[O-])(C(=O)[O-])O2)NC[C@H](O)c1cccc(Cl)c1.[Na+].[Na+] [CL316,243]
induction via bioimaging ([3]; 4 lines, BLI 4-5 hours after treatment): visible induction | induction of luciferase in the adipose tissue and lung (tissue homogenates) ([3]; 7 of 12 independent transgenic lines screened): greater than 10 fold

CCCCCCC(C)(C)c1ccc([C@@H]2C[C@H](O)CC[C@H]2CCCO)c(O)c1 [CP 55,940]
luciferase levels, agonist plus forskolin and rolipram versus forskolin and rolipram alone ([4]; cortical neurons line 187, 10 μM, 1 μM and 100 nM, forskolin and rolipram 10 μM, 8 hours): Significant decreases | luciferase signal with addition of CB1 agonist in different CreLuc lines ([4]; lines 69, 187, 175 and 219, 10 μM with forskolin 5 μM and rolipram 10 μM, four and twenty-four hours): Decreased signals

COc1ccc(C2CNC(=O)NC2)cc1O[C@H]1C[C@@H]2CC[C@H]1C2 [CP-80,633]
plasma cAMP levels [5]: significantly increase

C=CCN1CCc2c(cc(O)c(O)c2Cl)C(c2ccccc2)C1 (stereo not drawn) [SKF82958]
induction of luciferase in combination with rolipram compared to rolipram alone ([6]; cortical neurons line 187, 10 μM with 10 μM rolipram): 2 fold | luciferase levels, agonist alone ([6]; cortical neurons line 187, day 3, 10 μM): did not significantly increase

AVE0010: glucagon-like peptide 1 receptor (GLP-1R) agonist
non-fasting BG levels [7]: reduced | luciferase activity in tissue homogenates of 8 tissues ([8]; lines 11, 16 and 90, 0.1 mg/kg, s.c., 4 hours): pancreas-specific induction of luciferase | bioimaging response of mice before and after treatment ([8]; male line 11, 0.1 mg/kg, sc): responsive | transgene activation in the pancreas (bioimaging) ([8]; three independent lines, 0.1 mg/kg, sc, imaged after 4 hours): strong induction
